# Results published in patent US20220339143A1, “TAK-925 FOR USE IN TREATING NARCOLEPSY” (Takeda Pharmaceutical Company Limited, priority 2019, published 2022).
# Read-outs that look alike come from different tables or passages of the source.
# Test: Single dose PK in healthy subjects (Cohorts 1, 2, S1 and S2), plasma
# Assay type: in vivo, human
# Conditions: human, plasma, intravenous
# Procedure: This study investigates (i) the safety and tolerability of Compound A (methyl (2R,3S)-3-((methylsulfonyl)amino)-2-(((cis-4-phenylcyclohexyl)oxy)methyl)piperidine-1-carboxylate) when a single dose given as a 9 hour continuous IV infusion is administered to healthy adults, healthy elderly subjects and patients with narcolepsy type 1 (NT1); (ii) the pharmacokinetics of Compound A when a single dose given as a 9 hour continuous IV infusion is administered to healthy adults, healthy elderly subjects and patients with narcolepsy type 1; and (iii) the pharmacodynamics (PD) effects of Compound A, primarily by evaluation of the sleep latency on MWT when a single dose given as a 9 hour continuous IV infusion is administered to patients with narcolepsy type 1.
# Pharmacokinetics: Concentrations of Compound A in plasma, and CSF, and pharmacokinetics parameters.
# On average, the time to reach the plateau appeared to be approximately 3 to 4 hours after the start of infusion. […] After switching off the IV infusion, Compound A plasma concentrations declined rapidly and in a biphasic manner with a mean terminal disposition phase t1/2z ranging approximately from 3.4 to 5.1 hours across all doses. […] Table 5 provides a summary of plasma concentrations of Compound A after a single IV infusion in healthy subjects. Table 6 provides a summary of pharmacokinetic parameters of Compound A after a single IV infusion in healthy subjects.
# [1] = 14 mg, read-out: Plasma concentration, Maximum
# [2] = 14 mg, read-out: Plasma concentration, Mean
# [3] = 14 mg, read-out: Plasma concentration, Median
# [4] = 14 mg, read-out: Plasma concentration, Minimum
# [5] = 14 mg, read-out: Plasma concentration, Q1
# [6] = 14 mg, read-out: Plasma concentration, Q3
# [7] = 28 mg, read-out: Plasma concentration, Maximum
# [8] = 28 mg, read-out: Plasma concentration, Mean
# [9] = 28 mg, read-out: Plasma concentration, Median
# [10] = 28 mg, read-out: Plasma concentration, Minimum
# [11] = 28 mg, read-out: Plasma concentration, Q1
# [12] = 28 mg, read-out: Plasma concentration, Q3
compound,measurement,setting,value
"COC(=O)N1CCC[C@H](NS(C)(=O)=O)[C@@H]1CO[C@H]1CC[C@@H](c2ccccc2)CC1 [Compound A, methyl (2R,3S)-3-((methylsulfonyl)amino)-2-(((cis-4-phenylcyclohexyl)oxy)methyl)piperidine-1-carboxylate]",concentration at 3 hr,"7 mg, 3 hr, read-out: Plasma concentration, Q1",15.1 ng/mL
same,concentration at 3 h,"7 mg, 3 hr, read-out: Plasma concentration, Q3",18.8 ng/mL
same,concentration at 4 h,"7 mg, 4 hr, read-out: Plasma concentration, Maximum",20.6 ng/mL
same,concentration at 4 h,"7 mg, 4 hr, read-out: Plasma concentration, Mean",15.9 ng/mL
same,concentration at 4 h,"7 mg, 4 hr, read-out: Plasma concentration, Median",15.5 ng/mL
same,concentration at 4 h,"7 mg, 4 hr, read-out: Plasma concentration, Minimum",11.1 ng/mL
same,concentration at 4 hr,"7 mg, 4 hr, read-out: Plasma concentration, Q1",15.2 ng/mL
same,concentration at 4 h,"7 mg, 4 hr, read-out: Plasma concentration, Q3",17.6 ng/mL
same,concentration at 6 h,"7 mg, 6 hr, read-out: Plasma concentration, Maximum",15.9 ng/mL
same,concentration at 6 h,"7 mg, 6 hr, read-out: Plasma concentration, Mean",12.2 ng/mL
same,concentration at 6 h,"7 mg, 6 hr, read-out: Plasma concentration, Median",12.4 ng/mL
same,concentration at 6 h,"7 mg, 6 hr, read-out: Plasma concentration, Minimum",8.82 ng/mL
same,concentration at 6 hr,"7 mg, 6 hr, read-out: Plasma concentration, Q1",11.4 ng/mL
same,concentration at 6 h,"7 mg, 6 hr, read-out: Plasma concentration, Q3",12.5 ng/mL
same,concentration at 8 h,"7 mg, 8 hr, read-out: Plasma concentration, Maximum",16.1 ng/mL
same,concentration at 8 h,"7 mg, 8 hr, read-out: Plasma concentration, Mean",13 ng/mL
same,concentration at 8 h,"7 mg, 8 hr, read-out: Plasma concentration, Median",13.1 ng/mL
same,concentration at 8 h,"7 mg, 8 hr, read-out: Plasma concentration, Minimum",9.5 ng/mL
same,concentration at 8 hr,"7 mg, 8 hr, read-out: Plasma concentration, Q1",12.8 ng/mL
same,concentration at 8 h,"7 mg, 8 hr, read-out: Plasma concentration, Q3",13.4 ng/mL
same,concentration at 9 h,"7 mg, 9 hr, read-out: Plasma concentration, Maximum",15.2 ng/mL
same,concentration at 9 h,"7 mg, 9 hr, read-out: Plasma concentration, Mean",13.5 ng/mL
same,concentration at 9 h,"7 mg, 9 hr, read-out: Plasma concentration, Median",13.9 ng/mL
same,concentration at 9 h,"7 mg, 9 hr, read-out: Plasma concentration, Minimum",10.2 ng/mL
same,concentration at 9 hr,"7 mg, 9 hr, read-out: Plasma concentration, Q1",13.2 ng/mL
same,concentration at 9 h,"7 mg, 9 hr, read-out: Plasma concentration, Q3",15 ng/mL
same,concentration at 0.5 h,[1],27.2 ng/mL
same,concentration at 0.5 h,[2],22.5 ng/mL
same,concentration at 0.5 h,[3],22.1 ng/mL
same,concentration at 0.5 h,[4],18 ng/mL
same,concentration at 0.5 h,[5],21.7 ng/mL
same,concentration at 0.5 h,[6],23.9 ng/mL
same,concentration at 1 h,[1],32.1 ng/mL
same,concentration at 1 h,[2],26.6 ng/mL
same,concentration at 1 h,[3],26.9 ng/mL
same,concentration at 1 h,[4],21.8 ng/mL
same,concentration at 1 h,[5],22.6 ng/mL
same,concentration at 1 h,[6],29.7 ng/mL
same,concentration at 1.5 h,[1],36.1 ng/mL
same,concentration at 1.5 h,[2],30.4 ng/mL
same,concentration at 1.5 h,[3],29 ng/mL
same,concentration at 1.5 h,[4],27.4 ng/mL
same,concentration at 1.5 h,[5],27.6 ng/mL
same,concentration at 1.5 h,[6],33.6 ng/mL
same,concentration at 2 h,"14 mg, 2 hr, read-out: Plasma concentration, Maximum",37.8 ng/mL
same,concentration at 2 h,"14 mg, 2 hr, read-out: Plasma concentration, Mean",32.9 ng/mL
same,concentration at 2 h,"14 mg, 2 hr, read-out: Plasma concentration, Median",32 ng/mL
same,concentration at 2 h,"14 mg, 2 hr, read-out: Plasma concentration, Minimum",29.6 ng/mL
same,concentration at 2 h,"14 mg, 2 hr, read-out: Plasma concentration, Q1",30 ng/mL
same,concentration at 2 h,"14 mg, 2 hr, read-out: Plasma concentration, Q3",35.8 ng/mL
same,concentration at 3 h,"14 mg, 3 hr, read-out: Plasma concentration, Maximum",43.5 ng/mL
same,concentration at 3 h,"14 mg, 3 hr, read-out: Plasma concentration, Mean",35.8 ng/mL
same,concentration at 3 h,"14 mg, 3 hr, read-out: Plasma concentration, Median",34.3 ng/mL
same,concentration at 3 h,"14 mg, 3 hr, read-out: Plasma concentration, Minimum",31.8 ng/mL
same,concentration at 3 h,"14 mg, 3 hr, read-out: Plasma concentration, Q1",32.1 ng/mL
same,concentration at 3 h,"14 mg, 3 hr, read-out: Plasma concentration, Q3",39 ng/mL
same,concentration at 4 h,"14 mg, 4 hr, read-out: Plasma concentration, Maximum",40.4 ng/mL
same,concentration at 4 h,"14 mg, 4 hr, read-out: Plasma concentration, Mean",36.4 ng/mL
same,concentration at 4 h,"14 mg, 4 hr, read-out: Plasma concentration, Median",37 ng/mL
same,concentration at 4 h,"14 mg, 4 hr, read-out: Plasma concentration, Minimum",31 ng/mL
same,concentration at 4 h,"14 mg, 4 hr, read-out: Plasma concentration, Q1",33 ng/mL
same,concentration at 4 h,"14 mg, 4 hr, read-out: Plasma concentration, Q3",40 ng/mL
same,concentration at 6 h,"14 mg, 6 hr, read-out: Plasma concentration, Maximum",35.2 ng/mL
same,concentration at 6 h,"14 mg, 6 hr, read-out: Plasma concentration, Mean",29.3 ng/mL
same,concentration at 6 h,"14 mg, 6 hr, read-out: Plasma concentration, Median",29.7 ng/mL
same,concentration at 6 h,"14 mg, 6 hr, read-out: Plasma concentration, Minimum",23.1 ng/mL
same,concentration at 6 h,"14 mg, 6 hr, read-out: Plasma concentration, Q1",23.9 ng/mL
same,concentration at 6 h,"14 mg, 6 hr, read-out: Plasma concentration, Q3",34.4 ng/mL
same,concentration at 8 h,"14 mg, 8 hr, read-out: Plasma concentration, Maximum",34.4 ng/mL
same,concentration at 8 h,"14 mg, 8 hr, read-out: Plasma concentration, Mean",28.9 ng/mL
same,concentration at 8 h,"14 mg, 8 hr, read-out: Plasma concentration, Median",29.9 ng/mL
same,concentration at 8 h,"14 mg, 8 hr, read-out: Plasma concentration, Minimum",22.6 ng/mL
same,concentration at 8 h,"14 mg, 8 hr, read-out: Plasma concentration, Q1",24.6 ng/mL
same,concentration at 8 h,"14 mg, 8 hr, read-out: Plasma concentration, Q3",32.3 ng/mL
same,concentration at 9 h,"14 mg, 9 hr, read-out: Plasma concentration, Maximum",34.2 ng/mL
same,concentration at 9 h,"14 mg, 9 hr, read-out: Plasma concentration, Mean",30.1 ng/mL
same,concentration at 9 h,"14 mg, 9 hr, read-out: Plasma concentration, Median",30.8 ng/mL
same,concentration at 9 h,"14 mg, 9 hr, read-out: Plasma concentration, Minimum",22.8 ng/mL
same,concentration at 9 h,"14 mg, 9 hr, read-out: Plasma concentration, Q1",28.4 ng/mL
same,concentration at 9 h,"14 mg, 9 hr, read-out: Plasma concentration, Q3",33.5 ng/mL
same,concentration at 0.5 h,[7],48.7 ng/mL
same,concentration at 0.5 hr,[8],34.4 ng/mL
same,concentration at 0.5 hr,[9],32 ng/mL
same,concentration at 0.5 hr,[10],19.1 ng/mL
same,concentration at 0.5 hr,[11],29.6 ng/mL
same,concentration at 0.5 h,[12],42.6 ng/mL
same,concentration at 1 h,[7],51.8 ng/mL
same,concentration at 1 hr,[8],37.9 ng/mL
same,concentration at 1 hr,[9],36.6 ng/mL
same,concentration at 1 hr,[10],21.7 ng/mL
same,concentration at 1 hr,[11],36.5 ng/mL
same,concentration at 1 h,[12],42.8 ng/mL
same,concentration at 1.5 h,[7],55.9 ng/mL
same,concentration at 1.5 hr,[8],44.9 ng/mL
same,concentration at 1.5 h,[9],47.1 ng/mL
same,concentration at 1.5 hr,[10],27.2 ng/mL
same,concentration at 1.5 hr,[11],44.4 ng/mL
same,concentration at 1.5 h,[12],49.9 ng/mL
same,concentration at 2 h,"28 mg, 2 hr, read-out: Plasma concentration, Maximum",58.4 ng/mL
same,concentration at 2 hr,"28 mg, 2 hr, read-out: Plasma concentration, Mean",50.1 ng/mL
same,concentration at 2 h,"28 mg, 2 hr, read-out: Plasma concentration, Median",54.9 ng/mL
